# Measured values: ChEMBL document CHEMBL1208676, “Synthesis and in vitro antimycobacterial activity of balofloxacin ethylene isatin derivatives” (Eur J Med Chem, 2010)
# Columns and labels:
# [1] = test system: Mycolicibacterium smegmatis; assay: Antimycobacterial activity against Mycobacterium smegmatis CMCC 93202 after 72 hrs by serial double dilution method; assay type: functional; settings: CMCC 93202, 72 h
# [2] = test system: Mycolicibacterium phlei; assay: Antimycobacterial activity against Mycobacterium phlei CMCC 93201 after 72 hrs by serial double dilution method; assay type: functional; settings: CMCC 93201, 72 h
# [3] = Cytotoxicity against african green monkey Vero cells after 72 hrs by MTT assay; assay type: cell-based; settings: chlorocebus sabaeus
# [4] = test system: Mycobacterium tuberculosis; assay: Antimycobacterial activity against Mycobacterium tuberculosis 09710 after 72 hrs by serial double dilution method; assay type: functional; settings: Mycobacterium tuberculosis, 09710, 72 h
# [5] = Lipophilicity, log P of the compound; assay type: physicochemical; settings: octanol/water
# [6] = test system: Mycobacterium tuberculosis; assay: Antimycobacterial activity against Mycobacterium tuberculosis H37Rv ATCC 27294 after 72 hrs by serial double dilution method; assay type: functional; settings: H37Rv ATCC 27294, 72 h
compound,measurement,setting,value
COc1c(N2CCCC(N(C)CCN3C(=O)C(=O)c4ccccc43)C2)c(F)cc2c(=O)c(C(=O)O)cn(C3CC3)c12 (centres undefined),MIC,[1],25 µg/mL
same,MIC,[2],25 µg/mL
same,CC50 at 72 h,[3],137 µM
COc1c(N2CCCC(N(C)CCN3C(=O)C(=O)c4cc(F)ccc43)C2)c(F)cc2c(=O)c(C(=O)O)cn(C3CC3)c12 (centres undefined),MIC,[1],12.5 µg/mL
same,MIC,[2],25 µg/mL
same,CC50 at 72 h,[3],96.2 µM
same,MIC,[4],64 µg/mL
COc1c(N2CCCC(N(C)CCN3C(=O)/C(=N/O)c4cc(F)ccc43)C2)c(F)cc2c(=O)c(C(=O)O)cn(C3CC3)c12 (centres undefined),MIC,[1],12.5 µg/mL
same,MIC,[2],6.25 µg/mL
same,CC50 at 72 h,[3],306 µM
CO/N=C1/C(=O)N(CCN(C)C2CCCN(c3c(F)cc4c(=O)c(C(=O)O)cn(C5CC5)c4c3OC)C2)c2ccccc21 (centres undefined),MIC,[1],6.25 µg/mL
same,MIC,[2],3.12 µg/mL
same,CC50 at 72 h,[3],15 µM
CO/N=C1/C(=O)N(CCN(C)C2CCCN(c3c(F)cc4c(=O)c(C(=O)O)cn(C5CC5)c4c3OC)C2)c2ccc(F)cc21 (centres undefined),MIC,[1],6.25 µg/mL
same,MIC,[2],3.12 µg/mL
same,CC50 at 72 h,[3],12.8 µM
CCO/N=C1/C(=O)N(CCN(C)C2CCCN(c3c(F)cc4c(=O)c(C(=O)O)cn(C5CC5)c4c3OC)C2)c2ccccc21 (centres undefined),MIC,[1],6.25 µg/mL
same,MIC,[2],3.12 µg/mL
same,CC50 at 72 h,[3],60.5 µM
same,logP,[5],0.96
CCO/N=C1/C(=O)N(CCN(C)C2CCCN(c3c(F)cc4c(=O)c(C(=O)O)cn(C5CC5)c4c3OC)C2)c2ccc(F)cc21 (centres undefined),MIC,[1],6.25 µg/mL
same,MIC,[2],3.12 µg/mL
same,CC50 at 72 h,[3],53.1 µM
same,logP,[5],1.29
COc1c(N2CCCC(N(C)CCN3C(=O)/C(=N\NC(N)=S)c4ccccc43)C2)c(F)cc2c(=O)c(C(=O)O)cn(C3CC3)c12 (centres undefined),MIC,[1],6.25 µg/mL
same,MIC,[2],3.12 µg/mL
same,CC50 at 72 h,[3],294 µM
same,logP,[5],1.4
COc1c(N2CCCC(N(C)CCN3C(=O)/C(=N\NC(N)=S)c4cc(F)ccc43)C2)c(F)cc2c(=O)c(C(=O)O)cn(C3CC3)c12 (centres undefined),MIC,[1],6.25 µg/mL
same,MIC,[2],3.12 µg/mL
same,CC50 at 72 h,[3],313 µM
same,logP,[5],1.8
COc1c(N2CCCC(N(C)CCN3C(=O)/C(=N\NC(N)=O)c4ccccc43)C2)c(F)cc2c(=O)c(C(=O)O)cn(C3CC3)c12 (centres undefined),MIC,[1],12.5 µg/mL
same,MIC,[2],12.5 µg/mL
same,CC50 at 72 h,[3],56.1 µM
COc1c(N2CCCC(N(C)CCN3C(=O)/C(=N\NC(N)=O)c4cc(F)ccc43)C2)c(F)cc2c(=O)c(C(=O)O)cn(C3CC3)c12 (centres undefined),MIC,[1],6.25 µg/mL
same,MIC,[2],6.25 µg/mL
same,CC50 at 72 h,[3],57 µM
COc1c(N2CCCC(N(C)CCN3C(=O)/C(=N\Nc4ccccc4)c4ccccc43)C2)c(F)cc2c(=O)c(C(=O)O)cn(C3CC3)c12 (centres undefined),MIC,[1],6.25 µg/mL
same,MIC,[2],3.12 µg/mL
same,CC50 at 72 h,[3],< 6.1 µM
COc1c(N2CCCC(N(C)CCN3C(=O)/C(=N\Nc4ccccc4)c4cc(F)ccc43)C2)c(F)cc2c(=O)c(C(=O)O)cn(C3CC3)c12 (centres undefined),MIC,[1],6.25 µg/mL
same,MIC,[2],3.12 µg/mL
same,CC50 at 72 h,[3],< 6 µM
CNC1CCCN(c2c(F)cc3c(=O)c(C(=O)O)cn(C4CC4)c3c2OC)C1 (centres undefined) [BALOFLOXACIN],MIC,[6],8 µg/mL
same,MIC,[1],0.39 µg/mL
same,MIC,[2],0.78 µg/mL
same,CC50 at 72 h,[3],317 µM
same,MIC,[4],16 µg/mL
same,logP,[5],-1.11
COc1c(N2C[C@@H]3CCCN[C@@H]3C2)c(F)cc2c(=O)c(C(=O)O)cn(C3CC3)c12 [MOXIFLOXACIN],MIC,[6],0.25 µg/mL
same,MIC,[1],0.1 µg/mL
same,MIC,[2],0.2 µg/mL
same,MIC,[4],< 0.5 µg/mL
